Columns and labels:
[1] = test system: SD male rats; assay: Influences of β-elemene on blood gas when causing dyspnea of rats (abdominal aortic blood, blood-gas analyzer); format: in vivo, rat; conditions: BE 1.5 mg/mL
Description: Preparation of a BE solution: BE reference substances were precisely weighed and dissolved by 8.8% Tween 80 solution and prepared into a BE solution having a concentration of 1.5 mg/mL.
12 pieces of SPF-grade SD male rats (6 weeks of age, weight: 200±25 g) were taken; and these rats were purchased from Beijing Vital River Laboratory Animal Technology Co., Ltd, production license number: SCXK (J.) 2016-0006.Animal experiments involved in the research process were approved by Ethics Committee. The feeding conditions of the experimental rats are as follows: standard illumination-dark period is 12 h, temperature is 22±1° C., and relative humidity is 60±5%.
The rats were randomly divided into 2 groups, 6 pieces each group. The rats were adaptively fed with common fodders for one week. Then the rats were subjected to overnight fasting (12 h), and then intraperitoneally injected with chloral hydrate (10 mg/mL, 4 mL/kg) for anesthetization. After anesthetization, the two groups were respectively injected with BE and normal saline via caudal vein with an administration volume of 6 mL/kg.
After administration, abdominal aortic blood was taken and immediately analyzed with a blood-gas analyzer.

[2] = molecular target: T1, hemoglobin (Hb) (Homo sapiens, UniProt P68871+P69905); assay: Surface plasmon resonance (SPR) interaction between β-elemene and hemoglobin; format: binding; conditions: Hb coupled on chip, BE 0.78-100.00 μM, FIGS. 8-9
T1 construct: purchased Sigma H7379
T1 sequence (P69905 2-142 limits assumed): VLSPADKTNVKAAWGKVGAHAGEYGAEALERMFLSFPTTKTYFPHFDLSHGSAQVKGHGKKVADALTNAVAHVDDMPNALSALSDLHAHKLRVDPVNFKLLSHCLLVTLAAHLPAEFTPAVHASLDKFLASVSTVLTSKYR
T1 sequence (P68871 2-147 limits assumed): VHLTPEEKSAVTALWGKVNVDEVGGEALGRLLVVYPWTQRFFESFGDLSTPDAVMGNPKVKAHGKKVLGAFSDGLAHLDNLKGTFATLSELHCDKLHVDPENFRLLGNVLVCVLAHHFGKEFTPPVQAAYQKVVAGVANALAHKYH
Description: Surface plasmon resonance (SPR) technology was used to verify the interaction between β-elemene and hemoglobin. […] It is generally acknowledged that KD of binding protein to small molecules has an acceptable scope of 10^−4-10^−6M.
(1) Preparation of a Hb solution: a proper amount of Hb was weighed precisely and prepared into a solution having a concentration of 1 mg/mL with ultrapure water, then 20-fold diluted by pH 4.5 acetic acid for further use;
(2) PBS-P+10× was prepared into PBS-P+2.1× with ultrapure water, then a proper amount of DMSO was taken and prepared into PBS 2× containing 5% DMSO+0.1% Tween 20, and filtered for further use;
(3) A proper amount of BE reference substances were weighed precisely and dissolved into DMSO to be prepared into 10 mM solution, then the solution was diluted with PBS-P+2.1× to a reference substance solution containing 5% DMSO; and then the reference substance solution was diluted successively by 2× PBS-P+ to 100.00 μM, 50.00 μM, 25.00 μM, 12.50 μM, 6.25 μM, 3.12 μM. 1.56 μM and 0.78 μM and vortexed for 1 min, and then filtered by 0.22 μm filter membrane for further use.
(1) Chip activation: carboxyl (channels 1 and 2) on a chip was activated by EDC/NHS;
(2) the channel 2 was selected and coupled to a certain amount of Hb;
(3) the activated carboxyl not coupled to proteins on the chip was blocked by ethanolamine; […]

[3] = molecular target: T2, hemoglobin (Hb) α-helix (Homo sapiens, UniProt P68871+P69905); assay: Circular dichroism (CD) influences of β-elemene on Hb structure; conditions: Hb 5 μM, BE 1.00-6.25 μM, 25° C.; effect increases with BE concentration; FIG. 10
T2 construct: purchased Sigma H7379
T2 sequence (P69905 2-142 limits assumed): as the sequence (P69905 2-142 limits assumed) above
T2 sequence (P68871 2-147 limits assumed): as the sequence (P68871 2-147 limits assumed) above
Description: A circular dichroism spectrum technology (CD) was used to determine the influences of β-elemene on Hb structure.
Hb mainly presents α-helix at 200-250 nm. If the α-helix structure is changed, so do the shape of CD curve at 200-250 nm. The α-helix content of Hb at 222 nm may be calculated according to the equation (1): […]
The mean residue ellipticity (MRE) (degcm^2/dmol) is calculated according to the equation (2): […]
where, Cp is molar concentration (mM) of Hb; n is the number of amino acid residues; l is optical path (mm).
Preparation of a PBS solution: a proper amount of PBS buffer solution was taken and added a small amount of Tween 80, then prepared into a PBS solution containing 0.05% Tween 80.
Preparation of a Hb solution: a proper amount of Hb was weighed precisely and added a proper amount of PBS containing 0.05% Tween 80, then prepared into Hb having a concentration of 30 μM for further use. […]
(2) each concentration of sample was placed into a quartz sample pool from small to large (during solution exchange, the sample pool was cleaned by PBS and rinsed with the to-be-detected solution), then the sample pool was put to the sample chamber for detection in turn, and each sample was screened by spectrum for 3 times; […]

[4] = molecular target: T1, hemoglobin (Hb); assay: UV absorbance of hemoglobin after interaction with sample (r value, dyspnea risk evaluation)
Description: Preparation of Hb solution: a proper amount of Hb was precisely weighed and dissolved by normal saline (ultrasonic treatment for 30 s), and prepared into a solution having a concentration of 2 mg/mL.
Preparation of a BE solution: BE reference substance is precisely weighed and dissolved by 8.8% Tween 80 solution and prepared into a solution having a concentration of 1.5 mg/mL.
100 μL Hb solution was added to wells of a 96-well plate, and 100 μL BE sample solution, 100 μL 8.8% Tween 80 solution or 100 μL normal saline (as blank control) were successively added to the wells added with Hb solution. Each sample was repeated with 3 wells; then the microwell plate was covered, and the mixed solution was oscillated for 5 s in an oscillator to be mixed well, standing for 10 min at 25° C. A microplate reader was used for detection, and detection conditions were as follows: spectrum scanning was performed at 37° C. and 230-400 nm with a step size of 5 nm. […]
Where, OD is an absorbance value of a to-be-detected sample containing sesquiterpenoids in zedoary turmeric oil at a certain concentration at 280 nm after interacting with Hb; ODHb is an absorbance value of normal saline as a blank control at a wavelength of 280 nm after interacting with Hb; r is a ratio of OD to ODHb.

C=C[C@]1(C)CC[C@@H](C(=C)C)C[C@H]1C(=C)C [BE, (1S, 2S, 4R)-1-vinyl-methyl-2,4-di(1-methylvinyl) cyclohexane]
partial pressure of arterial oxygen ([1]; 6 mL/kg via caudal vein vs normal saline, FIG. 2): significantly decrease | arterial partial pressure of carbon dioxide ([1]; 6 mL/kg via caudal vein vs normal saline, FIG. 3): significantly decreases | arterial blood pH ([1]; 6 mL/kg via caudal vein vs normal saline, FIG. 4): no significant change | arterial oxygen saturation ([1]; 6 mL/kg via caudal vein vs normal saline, FIG. 5): significantly decrease | total hemoglobin ([1]; 6 mL/kg via caudal vein vs normal saline, FIG. 6): significantly increases | oxyhemoglobin ([1]; 6 mL/kg via caudal vein vs normal saline, FIG. 7): significantly decreases | observed symptoms after administration ([1]; 6 mL/kg via caudal vein, recovery after stopping administration): suffered dyspnea symptoms | Kd [2]: 5.84 µM | effect on Hb α-helix (CD curve at 200-250 nm) [3]: makes Hb α-helix performing helix removal | Hb absorbance within 260-300 nm ([4]; 1.5 mg/mL BE solution + 2 mg/mL Hb, 100 μL each, FIG. 11): significantly increasing | r (ratio of OD to ODHb at 280 nm) ([4]; 1.5 mg/mL BE solution, r>1.5 indicates high risk of dyspnea): ≈ 1.8
